For twelve compounds, TGI and GI50 results are on record in PubChem BioAssay (NCI).

Some test systems named below: OVCAR-4 ovarian; UACC-257 melanoma; OVCAR-5 ovarian; SF-539 CNS; SK-OV-3 ovarian; OVCAR-8 ovarian; OVCAR-3 ovarian; IGROV1 ovarian; SK-MEL-2 melanoma; SR leukemia.
Common to all, as to experiment: NCI-60 cell line screen, 48 h

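The compound was tested at five concentrations on cells cultured in 96-well plates, with a 48-hour exposure period. GI50 is the concentration that inhibits growth by half. Definition used: TGI = concentration required for complete inhibition of growth.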

On to `NCC(NC(=O)OCc1ccccc1)C(=O)O` (configuration not stated), for which the TGI in the assay with OVCAR-4 ovarian, in the assay with UACC-257 melanoma, in the assay with OVCAR-5 ovarian, in the assay on SF-539 CNS, with SK-OV-3 ovarian and in the assay with OVCAR-8 ovarian was greater than 50 µM each time. For the same compound, the TGI in the assay with OVCAR-3 ovarian, in the assay on IGROV1 ovarian and with SK-MEL-2 melanoma was greater than 50 µM in each case.

As to `Cc1cc(C(=O)N2CCN(Cc3ccccc3)CC2)c(C)o1`, the TGI in the assay on OVCAR-4 ovarian, in the assay with UACC-257 melanoma, in the assay on SR leukemia, in the assay with OVCAR-5 ovarian, in the assay on SF-539 CNS and in the assay on SK-OV-3 ovarian was greater than 100 µM each time. In addition, the TGI with OVCAR-8 ovarian, in the assay on OVCAR-3 ovarian and in the assay with IGROV1 ovarian was greater than 100 µM in each case.

For `CNC(C)C(=O)N[C@H](C(=O)N1CCC[C@@H]1CN(CCc1ccccc1)C(=O)C(F)(F)F)[C@H](C)OCC#CC#CCO[C@H](C)[C@H](NC(=O)[C@H](C)NC)C(=O)N1CCC[C@H]1CN(CCc1ccccc1)C(=O)C(F)(F)F` (some centres not stated), the GI50 with UACC-257 melanoma is 1280 nM; with OVCAR-5 ovarian, 1.88 µM; with SF-539 CNS, less than 10 nM; in the assay with SK-OV-3 ovarian, less than 0.01 µM; in the assay with OVCAR-8 ovarian it was 670 nM; in the assay with OVCAR-3 ovarian, 1420 nM. Moreover, the GI50 in the assay on IGROV1 ovarian is 2.13 µM; with SK-MEL-2 melanoma, less than 10 nM. The TGI was 2.72 µM with UACC-257 melanoma; 3.68 µM in the assay on OVCAR-5 ovarian; 0.199 µM in the assay on SF-539 CNS; less than 0.01 µM with SK-OV-3 ovarian; 2.19 µM with OVCAR-8 ovarian; 2.86 µM with OVCAR-3 ovarian. Moreover, the TGI with IGROV1 ovarian is 4.38 µM; in the assay with SK-MEL-2 melanoma, 1.41 µM.

Turning to `O=C(O)C1CCCCN1C(=O)c1ccccc1` (configuration not stated), the TGI in the assay on OVCAR-4 ovarian, with UACC-257 melanoma, in the assay with SR leukemia, in the assay with OVCAR-5 ovarian, in the assay on SF-539 CNS and with SK-OV-3 ovarian was greater than 100 µM in each case. The TGI in the assay with OVCAR-8 ovarian, with OVCAR-3 ovarian and in the assay on IGROV1 ovarian was greater than 100 µM each time.

In the case of `C=C(CS(=O)(=O)c1ccccc1)[P+](c1ccccc1)(c1ccccc1)c1ccccc1`, the TGI with OVCAR-4 ovarian was greater than 100 µM; in the assay with UACC-257 melanoma, 22.2 µM; with OVCAR-5 ovarian, greater than 100 µM; in the assay on SF-539 CNS it was 78.2 µM; with SK-OV-3 ovarian, 81.6 µM; in the assay on OVCAR-8 ovarian, 74.1 µM. Moreover, the results for the TGI with OVCAR-3 ovarian, in the assay with IGROV1 ovarian and with SK-MEL-2 melanoma were 37.9 µM, 68.4 µM and greater than 100 µM, respectively.

As to `O=C(O)CCC1(Br)CCCCC(Br)C1=O` (configuration not stated), the TGI in the assay on OVCAR-4 ovarian, in the assay on UACC-257 melanoma, in the assay on OVCAR-5 ovarian, with SF-539 CNS, with SK-OV-3 ovarian and with OVCAR-8 ovarian was greater than 100 µM throughout. In addition, the TGI in the assay with OVCAR-3 ovarian, in the assay with IGROV1 ovarian and in the assay on SK-MEL-2 melanoma was greater than 100 µM throughout.

As to `C/C(=N/NC(=O)C(N)=O)C(CC(C(=O)Nc1ccccc1C)/C(C)=N\NC(=O)C(N)=O)C(=O)Nc1ccccc1C` (configuration not stated), the TGI in the assay on OVCAR-4 ovarian, with UACC-257 melanoma, with OVCAR-5 ovarian, in the assay on SF-539 CNS, in the assay with SK-OV-3 ovarian and in the assay on OVCAR-8 ovarian was greater than 100 µM each time. Moreover, the TGI in the assay on OVCAR-3 ovarian, in the assay with IGROV1 ovarian and in the assay on SK-MEL-2 melanoma was greater than 100 µM in each case.

As to `CC(=O)OC1C(CCl)OC(N=[N+]=[N-])C(OC(C)=O)C1OC(C)=O` (configuration not stated), the TGI in the assay with OVCAR-4 ovarian, in the assay on UACC-257 melanoma, in the assay with SF-539 CNS, in the assay on SK-OV-3 ovarian, with OVCAR-8 ovarian and in the assay with OVCAR-3 ovarian was greater than 100 µM each time. For the same compound, the TGI in the assay on IGROV1 ovarian and in the assay on SK-MEL-2 melanoma was greater than 100 µM each time.

Turning to `CC(C)(C)[Si](C)(C)O/N=C\c1ccc(O[Si](C)(C)C(C)(C)C)cc1`, the TGI with OVCAR-4 ovarian, in the assay on UACC-257 melanoma, in the assay on OVCAR-5 ovarian, with SF-539 CNS, in the assay with SK-OV-3 ovarian and with OVCAR-8 ovarian was greater than 100 µM in each case. Further, the TGI in the assay with OVCAR-3 ovarian was 50.9 µM; in the assay with IGROV1 ovarian, greater than 100 µM; in the assay on SK-MEL-2 melanoma, greater than 100 µM.

With `C=C1Oc2nc3ccccc3c(=O)n2C1(C)C`, the TGI in the assay with OVCAR-4 ovarian, in the assay on UACC-257 melanoma, in the assay on OVCAR-5 ovarian, in the assay on SF-539 CNS, with SK-OV-3 ovarian and in the assay on OVCAR-8 ovarian was greater than 100 µM in each case. The TGI is greater than 10 µM in the assay on OVCAR-3 ovarian, greater than 100 µM in the assay on IGROV1 ovarian and greater than 100 µM in the assay with SK-MEL-2 melanoma.

Take `NCC1OC(OC2C(CO)OC(OC3C(O)C(N)CC(N)C3OC3OC(CO)C(O)C(O)C3N)C2O)C(N)C(O)C1O` (configuration not stated): the GI50 in the assay with OVCAR-4 ovarian, in the assay with UACC-257 melanoma, in the assay with OVCAR-5 ovarian, with SF-539 CNS, in the assay on SK-OV-3 ovarian and in the assay with OVCAR-8 ovarian was greater than 50 µg/mL each time. Further, the GI50 in the assay with OVCAR-3 ovarian, with IGROV1 ovarian and in the assay with SK-MEL-2 melanoma was greater than 50 µg/mL each time. For the same compound, the TGI with OVCAR-4 ovarian, in the assay on UACC-257 melanoma, in the assay on OVCAR-5 ovarian, in the assay with SF-539 CNS, in the assay on SK-OV-3 ovarian and with OVCAR-8 ovarian was greater than 50 µg/mL throughout. Further, the TGI in the assay with OVCAR-3 ovarian, in the assay on IGROV1 ovarian and with SK-MEL-2 melanoma was greater than 50 µg/mL in each case.

As for `COc1cc(C2CC(c3cc(C)ccc3C)=NN2c2ccc(S(=O)(=O)NC(=O)NCc3ccccc3)cc2)cc(OC)c1OC` (configuration not stated), the GI50 with OVCAR-4 ovarian is 3.28 µM; in the assay on UACC-257 melanoma it was 3530 nM; with OVCAR-5 ovarian, 4.19 µM; with SF-539 CNS, 2020 nM; in the assay with SK-OV-3 ovarian, 4.98 µM; with OVCAR-8 ovarian, 3770 nM. The GI50 in the assay with OVCAR-3 ovarian is 2420 nM; in the assay with IGROV1 ovarian, 3.95 µM; in the assay on SK-MEL-2 melanoma, 2810 nM. Besides, the TGI in the assay on OVCAR-4 ovarian came to 39.6 µM; with UACC-257 melanoma, 20.1 µM; with OVCAR-5 ovarian it was 26.1 µM; with SF-539 CNS, 4.69 µM; with SK-OV-3 ovarian, 18.4 µM; in the assay with OVCAR-8 ovarian, 32.4 µM. The TGI in the assay on OVCAR-3 ovarian stood at 5.4 µM; with IGROV1 ovarian it was 19.8 µM; with SK-MEL-2 melanoma, 6.25 µM.
